Laboratory results taken from US10023528B2, “Branched 3-phenylpropionic acid derivatives and their use” (BAYER INTELLECTUAL PROPERTY GMBH, priority 2011, dated 2018).

Experiments:
[1] = test system: recombinant guanylate cyclase reporter cell line (CHO reporter cell); assay: Action at a recombinant guanylate cyclase reporter cell line; format: cell-based; conditions: CHO reporter cell in vitro; read-out: MEC (minimum effective concentration), sGC-activating activity in the CHO reporter cell
Description: The cellular action of the compounds according to the invention is determined at a recombinant guanylate cyclase reporter cell line, as described in F. Wunder et al., Anal. Biochem. 339, 104-112 (2005).

[2] = biological target: soluble guanylate cyclase (sGC) (Rattus norvegicus (Rat), UniProt P20595); assay: Stimulation of sGC enzyme activity (PPi detection, luciferase); format: biochemical; conditions: sGC enzyme in vitro; for EC50: read-out: EC50 (concentration at 50% of maximum efficacy), activating action at the sGC enzyme
Description: Soluble guanylate cyclase (sGC) converts on stimulation GTP into cGMP and pyrophosphate (PPi). PPi is detected with the aid of the assay described below. The signal produced in the assay increases as the reaction progresses and serves as a measure of the sGC enzyme activity under the given stimulation.
To carry out the assay, 29 μl of enzyme solution [0-10 nM soluble guanylate cyclase (prepared according to Hönicka et al, J. Mol. Med. 77, 14-23 (1999)) in 50 mM TEA, 2 mM MgC2, 0.1% BSA (fraction V), 0.005% Brij®, pH 7.5] are initially introduced into a microplate, and 1 μl of the substance to be tested (as a serially diluted solution in DMSO) is added. The mixture is incubated at room temperature for 10 min. Then 20 μl of detection mix [1.2 nM Firefly Luciferase (Photinus pyralis luciferase, Promega), 29 μM dehydroluciferin (prepared according to Bitler & McElroy, Arch. Biochem. Biophys. 72, 358 (1957)), 122 μM luciferin (Promega), 153 μM ATP (Sigma) and 0.4 mM DTT (Sigma) in 50 mM TEA, 2 mM MgCl2, 0.1% BSA (fraction V), 0.005% Brij®, pH 7.5] are added. The enzyme reaction is started by adding 20 μl of substrate solution [1.25 mM guanosine 5′-triphosphate (Sigma) in 50 mM TEA, 2 mM MgC2, 0.1% BSA (fraction V), 0.005% Brij®, pH 7.5] and measured continuously in a luminometer. The extent of the stimulation by the substance to be tested can be determined relative to the signal of the unstimulated reaction.
The activation of haem-free guanylate cyclase is examined by addition of 25 μM of 1H-1,2,4-oxadiazolo[4,3-a]quinoxalin-1-one (ODQ) to the enzyme solution and subsequent incubation for 30 minutes and compared to the stimulation of the native enzyme.

saphenous artery rings = assay: Vasorelaxant effect in vitro (phenylephrine-contracted saphenous artery rings); format: cell-based; conditions: Oryctolagus cuniculus; rabbit saphenous artery rings, phenylephrine-induced contraction
Description: Rabbits are anaesthetized and sacrificed by intravenous injection of thiopental sodium (about 50 mg/kg) and exsanguinated. The saphenous artery is removed and divided into rings 3 mm wide. The rings are mounted singly on in each case a pair of triangular hooks open at the end and made of 0.3 mm-thick special wire (Remanium®). Each ring is placed under an initial tension in 5 ml organ baths with Krebs-Henseleit solution which is at 37° C., is gassed with carbogen and has the following composition: NaCl 119 mM; KCl 4.8 mM; CaCl2×2 H2O 1 mM; MgSO4×7 H2O 1.4 mM; KH2PO4 1.2 mM; NaHCO3 25 mM; glucose 10 mM; bovine serum albumin 0.001%. The force of contraction is detected with Statham UC2 cells, amplified and digitized via A/D converters (DAS-1802 HC, Keithley Instruments, Munich) and recorded in parallel on chart recorders. Contractions are induced by addition of phenylephrine.
After several (generally 4) control cycles, the substance to be investigated is added in each further run in increasing dosage, and the level of the contraction achieved under the influence of the test substance is compared with the level of the contraction reached in the last preceding run. The concentration necessary to reduce the contraction reached in the preceding control by 50% is calculated from this (IC50). The standard application volume is 5 μl. The proportion of DMSO in the bath solution corresponds to 0.1%.

Sequence of soluble guanylate cyclase (sGC) (P20595 whole entry): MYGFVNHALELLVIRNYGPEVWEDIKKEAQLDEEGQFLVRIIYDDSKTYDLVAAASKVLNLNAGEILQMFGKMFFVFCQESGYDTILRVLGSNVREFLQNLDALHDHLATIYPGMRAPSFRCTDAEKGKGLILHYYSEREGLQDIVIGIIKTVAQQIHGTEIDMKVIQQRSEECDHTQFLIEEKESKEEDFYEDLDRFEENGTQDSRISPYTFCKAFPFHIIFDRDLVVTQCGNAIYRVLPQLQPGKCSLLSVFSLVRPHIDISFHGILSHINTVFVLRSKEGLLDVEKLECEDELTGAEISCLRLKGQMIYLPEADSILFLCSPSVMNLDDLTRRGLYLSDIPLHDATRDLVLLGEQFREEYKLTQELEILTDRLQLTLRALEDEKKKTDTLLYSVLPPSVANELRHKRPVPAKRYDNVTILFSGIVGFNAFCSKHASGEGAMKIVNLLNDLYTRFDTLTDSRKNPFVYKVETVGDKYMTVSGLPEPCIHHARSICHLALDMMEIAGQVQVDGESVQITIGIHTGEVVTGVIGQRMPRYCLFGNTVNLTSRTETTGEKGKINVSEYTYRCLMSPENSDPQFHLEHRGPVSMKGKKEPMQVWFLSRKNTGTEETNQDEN
Sequence of soluble guanylate cyclase (sGC) (P19686 whole entry partner): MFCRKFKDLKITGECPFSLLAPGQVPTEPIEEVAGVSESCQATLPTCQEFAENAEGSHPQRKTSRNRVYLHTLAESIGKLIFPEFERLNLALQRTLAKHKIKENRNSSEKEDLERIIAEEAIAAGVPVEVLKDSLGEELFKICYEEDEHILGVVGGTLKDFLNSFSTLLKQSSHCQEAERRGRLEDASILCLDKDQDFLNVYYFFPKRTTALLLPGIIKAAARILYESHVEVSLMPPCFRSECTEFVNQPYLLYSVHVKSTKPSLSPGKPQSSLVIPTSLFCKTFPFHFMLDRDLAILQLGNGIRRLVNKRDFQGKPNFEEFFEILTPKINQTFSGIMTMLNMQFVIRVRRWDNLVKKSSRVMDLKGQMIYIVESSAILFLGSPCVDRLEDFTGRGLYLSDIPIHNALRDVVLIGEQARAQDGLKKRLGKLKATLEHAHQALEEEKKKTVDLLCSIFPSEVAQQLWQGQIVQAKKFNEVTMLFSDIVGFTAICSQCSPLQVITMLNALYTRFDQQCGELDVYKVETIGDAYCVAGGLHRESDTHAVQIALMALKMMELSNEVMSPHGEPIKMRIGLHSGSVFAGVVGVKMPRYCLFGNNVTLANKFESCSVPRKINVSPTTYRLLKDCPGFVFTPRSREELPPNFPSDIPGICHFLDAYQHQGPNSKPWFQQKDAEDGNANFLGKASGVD

SMILES	minimal effective concentration [1]	MEC (minimum effective concentration), activating action at the sGC enzyme [2]	EC50 [2]	IC50 (saphenous artery rings)
CC(C)C(C)(CC(=O)O)c1ccc(Cl)c(NC(=O)[C@H](c2ccc(Cl)cc2)[C@@H](C)C(F)(F)F)c1 (single isomer, unassigned) [Example 4]	0.003 µM	2.4 nM	110 nM	
CC(C)C(C)(CC(=O)O)c1ccc(Cl)c(NC(=O)[C@H](c2ccc(Cl)cc2)[C@@H](C)C(F)(F)F)c1 (single isomer, unassigned) [Example 3]	0.0003 µM	1 nM	37 nM	801 nM
C[C@H]([C@H](C(=O)Nc1cc(C(CC(=O)O)CC2CC2)ccc1Cl)c1ccc(Cl)cc1)C(F)(F)F (single isomer, unassigned) [Example 35]	0.0003 µM	1 nM	11 nM	
CC(C)C(CC(=O)O)c1ccc(Cl)c(NC(=O)[C@H](c2ccc(Cl)cc2)[C@@H](C)C(F)(F)F)c1 (single isomer, unassigned; (+)) [Example 1]	0.003 µM	1 nM	22 nM	
C[C@H]([C@H](C(=O)Nc1cc(C(CC(=O)O)C2CCC2)ccc1Cl)c1ccc(Cl)cc1)C(F)(F)F (single isomer, unassigned; (+)) [Example 33]	0.001 µM	0.4 nM	11 nM	
C[C@H]([C@H](C(=O)Nc1cc(C(C)(CC(=O)O)C2CC2)ccc1Cl)c1ccc(Cl)cc1)C(F)(F)F (stereo partly drawn) [Example 7]	0.3 µM			
CC(C(=O)O)C(c1ccc(Cl)c(NC(=O)C(c2ccc(Cl)cc2)[C@@H](C)C(F)(F)F)c1)C1CC1 (stereo partly drawn) [Example 30]	0.01 µM	1.7 nM	640 nM	
CC(C)C(CC(=O)O)c1ccc(Cl)c(NC(=O)C(c2ccc(Cl)cc2)C2CCC(F)(F)C2)c1 (stereo not drawn) [Example 19]	0.03 µM			
C[C@H]([C@H](C(=O)Nc1cc(C(CC(=O)O)C2(F)CC2)ccc1Cl)c1ccc(Cl)cc1)C(F)(F)F (stereo partly drawn) [Example 27]	0.003 µM	1.7 nM	68 nM	
CC(C)C(CC(=O)O)c1ccc(Cl)c(NC(=O)C(c2ccc(Cl)cc2)C2CCC(F)(F)C2)c1 (stereo not drawn) [Example 20]	1 µM			
CC(C)C(CC(=O)O)c1ccc(Cl)c(NC(=O)[C@H](c2ccc(Cl)cc2)[C@@H](C)C(F)(F)F)c1 (single isomer, unassigned; (+)) [Example 2]	0.0065 µM	4 nM	89 nM	
CC(C)C(CC(=O)O)c1ccc(Cl)c(NC(=O)[C@H](c2ccc(Cl)c(F)c2)[C@@H](C)C(F)(F)F)c1 (stereo partly drawn) [Example 9]	0.001 µM			
C[C@H]([C@H](C(=O)Nc1cc(C(CC(=O)O)C2CCC2)ccc1Cl)c1ccc(Cl)cc1)C(F)(F)F (single isomer, unassigned; (+)) [Example 34]	0.01 µM			
Cc1ccc([C@@H](C(=O)Nc2cc(C(CC(=O)O)C(C)C)ccc2Cl)[C@@H](C)C(F)(F)F)cc1 (stereo partly drawn) [Example 16]	0.003 µM			767 nM
C[C@H]([C@H](C(=O)Nc1cc(C(CC(=O)O)C2CC2)ccc1Cl)c1ccc(Cl)cc1)C(F)(F)F (stereo partly drawn) [Example 23]	0.003 µM			
CC(C)C(CC(=O)O)c1ccc(Cl)c(NC(=O)[C@H](c2ccc(F)cc2)[C@@H](C)C(F)(F)F)c1 (stereo partly drawn) [Example 11]	0.003 µM			

SMILES	minimal effective concentration [1]	MEC (minimum effective concentration), activating action at the sGC enzyme [2]	EC50 [2]	IC50 (saphenous artery rings)
C[C@H]([C@H](C(=O)Nc1cc(C(C)(CC(=O)O)C2CCC2)ccc1Cl)c1ccc(Cl)cc1)C(F)(F)F (single isomer, unassigned) [Example 5]	0.0003 µM	0.3 nM	5.2 nM	
C[C@H]([C@H](C(=O)Nc1cc(C(CC(=O)O)C2CC(F)(F)C2)ccc1Cl)c1ccc(Cl)cc1)C(F)(F)F (stereo partly drawn) [Example 28]	0.03 µM			
C[C@H]([C@H](C(=O)Nc1cc(C(CC(=O)O)C2(C)CC2)ccc1Cl)c1ccc(Cl)cc1)C(F)(F)F (single isomer, unassigned) [Example 26]	0.01 µM			
CC(C)C(CC(=O)O)c1ccc(Cl)c(NC(=O)[C@H](c2ccc(C(C)(C)C)cc2)[C@@H](C)C(F)(F)F)c1 (stereo partly drawn) [Example 14]	0.0003 µM	0.5 nM	8.4 nM	269 nM
C[C@H]([C@H](C(=O)Nc1cc(C(CC(=O)O)CC2CC2)ccc1Cl)c1ccc(Cl)cc1)C(F)(F)F (single isomer, unassigned) [Example 36]	0.003 µM			
CCc1ccc([C@@H](C(=O)Nc2cc(C(CC(=O)O)C(C)C)ccc2Cl)[C@@H](C)C(F)(F)F)cc1 (stereo partly drawn) [Example 8]	0.001 µM			
C[C@H](C(C(=O)Nc1cc(C(CC(=O)O)C2CC2(F)F)ccc1Cl)c1ccc(Cl)cc1)C(F)(F)F (stereo partly drawn) [Example 31, 3-(4-Chloro-3-{[(3R)-2-(4-chlorophenyl)-4,4,4-trifluoro-3-methylbutanoyl]amino}phenyl)-3-(2,2-difluorocyclopropyl)propanoic acid]	0.003 µM			
CC(C)c1ccc([C@@H](C(=O)Nc2cc(C(CC(=O)O)C(C)C)ccc2Cl)[C@@H](C)C(F)(F)F)cc1 (stereo partly drawn) [Example 10]	0.0003 µM	0.5 nM	10 nM	131 nM
CC(C)C(CC(=O)O)c1ccc(Cl)c(NC(=O)C(c2ccc(Cl)cc2)C2CCC(F)(F)C2)c1 (stereo not drawn) [Example 21]	0.01 µM			
CC(C)C(CC(=O)O)c1ccc(Cl)c(NC(=O)[C@H](c2ccc(C3CC3(F)F)cc2)[C@@H](C)C(F)(F)F)c1 (stereo partly drawn) [Example 13]	0.0003 µM	0.5 nM	14 nM	
COc1cc([C@@H](C(=O)Nc2cc(C(CC(=O)O)C(C)C)ccc2Cl)[C@@H](C)C(F)(F)F)ccc1Cl (stereo partly drawn) [Example 15]	0.003 µM			
C[C@H]([C@H](C(=O)Nc1cc(C(C)(CC(=O)O)C2CCC2)ccc1Cl)c1ccc(Cl)cc1)C(F)(F)F (single isomer, unassigned) [Example 6]	0.001 µM	1.1 nM	56 nM	
COC(C)(C)C(CC(=O)O)c1ccc(Cl)c(NC(=O)[C@H](c2ccc(Cl)cc2)[C@@H](C)C(F)(F)F)c1 (stereo partly drawn) [Example 25]	0.01 µM	5.1 nM	220 nM	
Cc1cc([C@@H](C(=O)Nc2cc(C(CC(=O)O)C(C)C)ccc2Cl)[C@@H](C)C(F)(F)F)ccc1Cl (stereo partly drawn) [Example 17]	0.001 µM			
CC(C)C(CC(=O)O)c1ccc(Cl)c(NC(=O)C(c2ccc(CC(F)(F)F)cc2)C(C)C(F)(F)F)c1 (stereo not drawn) [Example 12]	0.001 µM	1.1 nM	17 nM	
CC(C)C(CC(=O)O)c1ccc(Cl)c(NC(=O)C(c2ccc(Cl)cc2)C2CCC(F)(F)C2)c1 (stereo not drawn) [Example 18]	0.3 µM			
